From patent publication US8663669B2, “Pesticide treatment of soils or substrates with sulphur compounds” (Arkema France, priority 2002, dated 2014)

Experiments:
[1] = system: Sclerotinia sclerotiorum; experiment: Fungicidal efficacy by gassing, sclerotia; assay type: cell-based; set-up: Vitality score Nm (over 19 days): scale not given here; Reduction in viability RV / Reduction in vitality score RNm: unit not given here; details: for Reduction in viability RV / Reduction in vitality score RNm: compared with the control
Experimental: These four organisms are the following:
Sclerotinia sclerotiorum: polyphagous fungus which attacks mainly melon crops.
• Sclerotinia sclerotiorum: sclerotia • Sclerotium rolfsii: sclerotia • Rhizoctonia solani: colonized barley grains (mycelium and sclerotia) • Phytophthora cactorum: colonized millet grains (mycelium, sporangia and oospores) Preparation of the Fungi (24 h Before the Gassing Operation) 1. Preparation of the sclerotia of Sclerotinia sclerotiorum and of Sclerotium rolfsii: The fungi are cultured on malt agar medium until the sclerotia are obtained. The sclerotia are collected in a sterile manner and stored dry in empty Petri dishes until they are used. The sclerotia used for the trial are over 3 months old and are perfectly dormant. 2. Preparation of Phytophthora cactorum and of Rhizoctonia solani: The millet and barley used for the multiplication of the two fungi are moistened with ultrapure water by immersing for 24 hours. The grains are then slightly drained and then distributed into flasks and autoclaved (3 autoclavings at 110° C. for 20 minutes, 3 times at 24 hour intervals). Fragments of fungal culture are introduced into the flasks which are then incubated at 22° C.±2° C. (white light 18 h) until homogeneous colonization is obtained. The grains are then removed from the flasks in a sterile manner, dried in the sterile stream of a safety cabinet and then stored in the dry state until they are used. Conditions for Gassing and for Desorption
All the batches of fungi to be treated are placed for a few hours at the trial temperature (20° C.). Between 35 and 300 units of fungi or “propagules” (grains or sclerotia) are subjected to gassing during each trial.
Each fumigation chamber comprising to one or more species of fungi corresponds to a glass round-bottomed flask which is impervious to the gas and has a volume of 11 litres. Each round-bottomed flask is equipped with branch connections, one at the bottom for introducing the liquid DMDS, one at the top for collecting the air sample with a syringe.
Before introducing the gas, a partial vacuum (−500 mbar) is established in the round-bottomed flask with a vacuum pump. This makes it possible, on the one hand, to avoid the phenomenon of excess pressure due to the expansibility of DMDS in the round-bottomed flask and, on the other hand, to promote better homogeneity of the air-gas mixture in the first few seconds which follow injection. The DMDS (weighed accurately to the mg) is injected with a syringe, in liquid form, through the bottom branch connection, that is to say under the screen placed at half height of the round-bottomed flask and supporting the batches of fungi. After introducing the product, the internal pressure of the round-bottomed flask is re-established at atmospheric pressure. A magnetic stirrer operates during the entire duration of the treatment in order to properly homogenize the air-gas mixture.
At the end of the gassing, the cover for the round-bottomed flask is removed. One minute after this operation, the batches of fungi gassed are taken out and left in the open air for 15 minutes for desorption of the DMDS. They are then transferred into a Petri dish, the latter remaining open for 5 minutes to allow perfect desorption of the gas.
The mean concentration (C in g/m^3) of DMDS in the fumigation chamber after homogenization of the gas in the chamber air is measured by GC with an FID detector and, taking into account the duration of exposure (T in hours), the product CT (g·h/m^3) is calculated which, in the field of fumigation, is the key parameter to be considered, since the biological efficacy of a gas towards a given pathogenic agent is only effective if the latter was exposed to a certain mean concentration C for a certain duration of exposure T, that is to say to a certain value of the product CT, a value (or dose) which can be reached in different ways: low concentrations and long duration of exposure or conversely. […]

[2] = system: soil microorganisms; experiment: Effect on soil microorganisms (oxygen consumed); details: 150 kg/ha (formulation A)
Experimental: The effect of DMDS, applied at 150 kg/ha in the form of formulation A, to soil microorganisms was evaluated according to the following standard methods: • “Recommended tests for assessing the side-effects of pesticides on the soil micro flora”, Technical Report Agricultural Research Council Weed Research Organization, 1980 (59). • “OECD Guideline for Testing of Chemicals—Soil Microorganisms: Carbon Mineralization Test”, Draft document, June 1996.
The effect of DMDS on soil microorganisms is measured by the reduction in the oxygen consumed by these microorganisms, expressed in mg O2 per kg of dry soil per h, 14, 28, 42, 57 days after the treatment (Table 14).

[3] = CT 1 050 g·h/m^3 (C 15.91 g/m^3, T 66 h)
[4] = CT 1 402 g·h/m^3 (C 21.24 g/m^3, T 66 h)
[5] = CT 1 450 g·h/m^3 (C 30.96 g/m^3, T 48 h)
[6] = CT 1 899 g·h/m^3 (C 28.77 g/m^3, T 66 h)
[7] = CT 1 981 g·h/m^3 (C 30.02 g/m^3, T 66 h)
[8] = CT 2 460 g·h/m^3 (C 51.25 g/m^3, T 48 h)
[9] = CT 2 471 g·h/m^3 (C 37.44 g/m^3, T 66 h)
[10] = CT 2 837 g·h/m^3 (C 42.98 g/m^3, T 66 h)
[11] = CT 2 974 g·h/m^3 (C 45.06 g/m^3, T 66 h)
[12] = CT 3 169 g·h/m^3 (C 48.02 g/m^3, T 66 h)
[13] = CT 3 467 g·h/m^3 (C 52.53 g/m^3, T 66 h), called an abnormal point
[14] = CT 419 g·h/m^3 (C 17.46 g/m^3, T 24 h)
[15] = CT 625 g·h/m^3 (C 26.04 g/m^3, T 24 h)
[16] = CT 703 g·h/m^3 (C 29.29 g/m^3, T 24 h)
[17] = CT 907 g·h/m^3 (C 37.79 g/m^3, T 24 h)

Compound: CSSC [DMDS, dimethyl disulphide]
- Viability V [1, 3]: 41.8%
- Vitality score Nm (over 19 days) [1, 3]: 5.1
- Reduction in viability RV [1, 3]: 56.1
- Reduction in vitality score RNm [1, 3]: 63.6
- Viability V [1, 4]: 46.8%
- Vitality score Nm (over 19 days) [1, 4]: 1.3
- Reduction in viability RV [1, 4]: 50.9
- Reduction in vitality score RNm [1, 4]: 90.6
- Viability V [1, 5]: 29.8%
- Vitality score Nm (over 19 days) [1, 5]: 1.0
- Reduction in viability RV [1, 5]: 65.8
- Reduction in vitality score RNm [1, 5]: 92.1
- Viability V [1, 6]: 29.6%
- Vitality score Nm (over 19 days) [1, 6]: 3.6
- Reduction in viability RV [1, 6]: 68.9
- Reduction in vitality score RNm [1, 6]: 74.8
- Viability V [1, 7]: 20.3%
- Vitality score Nm (over 19 days) [1, 7]: 2.7
- Reduction in viability RV [1, 7]: 78.7
- Reduction in vitality score RNm [1, 7]: 81.2
- Viability V [1, 8]: 14.6%
- Vitality score Nm (over 19 days) [1, 8]: 0.7
- Reduction in viability RV [1, 8]: 83.2
- Reduction in vitality score RNm [1, 8]: 94.9
- Viability V [1, 9]: 32.9%
- Vitality score Nm (over 19 days) [1, 9]: 4.6
- Reduction in viability RV [1, 9]: 67.1
- Reduction in vitality score RNm [1, 9]: 70.5
- Viability V [1, 10]: 14.1%
- Vitality score Nm (over 19 days) [1, 10]: 1.8
- Reduction in viability RV [1, 10]: 85.2
- Reduction in vitality score RNm [1, 10]: 87.5
- Viability V [1, 11]: 11.2%
- Vitality score Nm (over 19 days) [1, 11]: 1.6
- Reduction in viability RV [1, 11]: 88.8
- Reduction in vitality score RNm [1, 11]: 89.9
- Viability V [1, 12]: 0%
- Vitality score Nm (over 19 days) [1, 12]: 0
- Reduction in viability RV [1, 12]: 100
- Reduction in vitality score RNm [1, 12]: 100
- Viability V [1, 13]: 32.3%
- Vitality score Nm (over 19 days) [1, 13]: 3.3
- Reduction in viability RV [1, 13]: 67.7
- Reduction in vitality score RNm [1, 13]: 79.0
- Viability V [1, 14]: 89.7%
- Vitality score Nm (over 19 days) [1, 14]: 13.3
- Reduction in viability RV [1, 14]: −3.0
- Reduction in vitality score RNm [1, 14]: −3.6
- Viability V [1, 15]: 87.8%
- Vitality score Nm (over 19 days) [1, 15]: 12.8
- Reduction in viability RV [1, 15]: −0.8
- Reduction in vitality score RNm [1, 15]: 0.1
- Viability V [1, 16]: 85.4%
- Vitality score Nm (over 19 days) [1, 16]: 12.6
- Reduction in viability RV [1, 16]: 2.0
- Reduction in vitality score RNm [1, 16]: 2.2
- Viability V [1, 17]: 81.6%
- Vitality score Nm (over 19 days) [1, 17]: 12.0
- Reduction in viability RV [1, 17]: 6.3
- Reduction in vitality score RNm [1, 17]: 6.6
- Oxygen consumed by soil microorganisms ([2]; Day 0, untreated control 11.23): 9.70 mg O2 per kg of dry soil per h
- Oxygen consumed by soil microorganisms ([2]; Day 14, untreated control 10.18): 8.74 mg O2 per kg of dry soil per h
- Oxygen consumed by soil microorganisms ([2]; Day 28, untreated control 7.87): 6.62 mg O2 per kg of dry soil per h
- Oxygen consumed by soil microorganisms ([2]; Day 42, untreated control 9.12): 8.93 mg O2 per kg of dry soil per h
- Oxygen consumed by soil microorganisms ([2]; Day 57, untreated control 7.30): 4.90 mg O2 per kg of dry soil per h
